One assay addresses M2 22-62 (S31N) (Influenza A virus, UniProt P0DOF5, C50S/S31N). Type of assay: biochemical.
In assay [1] the test system is Influenza A/California/07/2009 (H1N1), M2 S31N. In kind it is cell-based, Influenza A virus.
The test system of assay [2] is A/PR/8/34 (H1N1), M2 V27T/S31N. Type of assay: cell-based, Influenza A virus.
For assay [3], the system named is Influenza A/Victoria/3/75 (H3N2). Nature of the assay: microbe, parasite or virus in culture. In kind it is cell-based.
The next assay relates to A/WS/33 (H1N1), M2 S31N. In kind it is cell-based, Influenza A virus.
Assay [4] relates to Influenza A/California/07/2009 (H1N1), M2 S31N. Conditions: cited from earlier work.
Assay [5] has as its system Influenza A/California/07/2009 (H1N1). Type of assay: cell-based, Influenza A virus. Conditions: read-out: EC50 against the passage 12 7-resistant mutant.
Setting [6] is: read-out: EC50 A/Calif/07/09 (H1N1).
[7] abbreviates: read-out: EC50s of the drug components of the incubation mixture.

Where two headings read alike, the source gives them in different places.

For the molecule `NCCN1CCCC12C1CC3CC(C1)CC2C3` (stereo not shown) [Compound 12, 2-((1r,3r,5r,7r)-spiro[adamantane-2,2′-pyrrolidin]-1′-yl)ethan-1-amine], the “H^+ Uptake Rate ± SD (%) (N)” value on M2 22-62 (S31N) was 11 ± 18 (4) %. The EC50 in assay [1] (read-out: EC50 ± SE (μM) (N)) stood at 2.66 µM.

For the molecule `NC12CC3CC(CC(C3)C1)C2` [Amantadine (1), Amantadine, reference compound], on M2 22-62 (S31N), the “H^+ Uptake Rate ± SD (%) (N)” value was 77 ± 29 (8) %. Also, the EC50 came out at 24 µM in assay [2]; 2.8 ± 0.3 µM in assay [3] (Influenza A virus, H3N2, read-out: EC50 ± S.E. (μM)); 24 µM in the assay on A/WS/33 (H1N1), M2 S31N; 240 µM in assay [1] (setting [6]); 242 µM in assay [1] (read-out: EC50 ± SE (μM) (N)). Besides, in assay [3], the “EC50 ± S.E. (μM)” value is reported as “Inactive”. Further, the Resistance development entry in assay [3] is reported as “complete during a single 3-4 day passage”. The “activity against H1N1 (2009) (known)” value in assay [4] is “inactive”.

For the molecule `CC(C)(N)C12CC3CC(CC(C3)C1)C2` [Compound 259, 2-(adamantan-1-yl)propan-2-amine], the EC50 in assay [2] was under 0.2 µM; with A/WS/33 (H1N1), M2 S31N, 300 µM; in assay [1] (setting [6]), 24 µM.

As to `CCCC1(N)C2CC3CC(C2)CC1C3` (stereo not shown) [Compound 7], on M2 22-62 (S31N), the “H^+ Uptake Rate ± SD (%) (N)” value is 24 ± 17 (6) %. For the same molecule, the EC50 in assay [2] worked out at 0.5 µM; with A/WS/33 (H1N1), M2 S31N, 390 µM; in assay [1] (setting [6]), 4.7 µM; in assay [1] (read-out: EC50 ± SE (μM) (N)), 4.71 µM.

In the case of `NC1(Cc2ccccc2)C2CC3CC(C2)CC1C3` (stereo not shown) [Compound 20, (1r,3r,5r,7r)-2-benzyladamantan-2-amine], the EC50 turned out to be 1.2 µM in assay [2]; 280 µM in the assay with A/WS/33 (H1N1), M2 S31N; 8.6 µM in assay [1] (setting [6]).

Regarding `CCCCCCC1(N)C2CC3CC(C2)CC1C3` (stereo not shown) [Compound 101, 2-n-hexyl-tricyclo[3.3.1.1^3,7]decan-2-amine], the EC50 came out at 0.07 µM in assay [2]; 13 µM in the assay on A/WS/33 (H1N1), M2 S31N; 0.13 µM in assay [1] (setting [6]). In addition, the “inhibition of the A/WS/33 strain (in words)” value with A/WS/33 (H1N1), M2 S31N was “some inhibitory effect”.

For `CC(C)CC1(N)C2CC3CC(C2)CC1C3` (stereo not shown) [Compound 18, (1r,3r,5r,7r)-2-isobutyladamantan-2-amine], the EC50 worked out at 0.3 µM in assay [2]; 210 µM in the assay with A/WS/33 (H1N1), M2 S31N; 8 µM in assay [1] (setting [6]).

In the case of `CC1CCC2(N1)C1CC3CC(C1)CC2C3` (stereo not shown) [Compound 341, 5-methylspiro[pyrrolidine-2,2′-tricyclo[3.3.1.1^3,7]decane]], the “efficacy against A/California/07/2009 (in words)” value in assay [1] is given as “less effective than the others”. Further, the EC50 in assay [1] (setting [6]) is 34 µM.

For `CC1CN(C)C2(C1)C1CC3CC(C1)CC2C3` (stereo not shown) [Compound 345, 1,4-dimethylspiro[pyrrolidine-2,2′-tricyclo [3.3.1.1^3,7]decane]], the EC50 in assay [1] (setting [6]) worked out at 7 µM.

Regarding `CCC1CCC2(N1)C1CC3CC(C1)CC2C3` (stereo not shown) [Compound 347, 5-ethylspiro[pyrrolidine-2,2′-tricyclo[3.3.1.1^3,7]decane]], the EC50 in assay [1] (setting [6]) came out at 8.7 µM.

On to `NC1(C23CC4CC(CC(C4)C2)C3)CCCC1` [Compound 9], for which, on M2 22-62 (S31N), the “H^+ Uptake Rate ± SD (%) (N)” value is given as 11 ± 25 (3) %. Also, the EC50 is 22 ± 2 µM in assay [5], 0.36 µM in assay [1] (setting [7]) and 0.79 µM in assay [1] (read-out: EC50 ± SE (μM) (N)).

On to `CCCCC1(N)C2CC3CC(C2)CC1C3` (stereo not shown) [Compound 17, (1r,3r,5r,7r)-2-butyladamantan-2-amine], for which the EC50 amounted to 0.3 µM in assay [2]; 355 µM in the assay on A/WS/33 (H1N1), M2 S31N; 8.5 µM in assay [1] (setting [6]).

Take `C1CCC2(NC1)C1CC3CC(C1)CC2C3` (stereo not shown) [Compound 6]: at M2 22-62 (S31N), the “H^+ Uptake Rate ± SD (%) (N)” value was 1.3 ± 5.7 (6) %. Moreover, in assay [1] (read-out: EC50 ± SE (μM) (N)), the EC50 worked out at 19.8 µM.

In the case of `CC1CCC2(C3CC4CC(C3)CC2C4)N1C` (stereo not shown) [Compound 344, 1,5-Dimethylspiro[pyrrolidine-2,2′-tricyclo[3.3.1.1^3,7]decane]], the EC50 in assay [1] (setting [6]) was found to be 7.7 µM.

For the molecule `C1CCC(C23CC4CC(CC(C4)C2)C3)NC1` (stereo not shown) [Compound 10], the EC50 in assay [1] (setting [7]) is 2.8 µM; in assay [1] (read-out: EC50 ± SE (μM) (N)), 7 µM.

With `CC1CNC2(C1)C1CC3CC(C1)CC2C3` (stereo not shown) [Compound 342, 4-Methylspiro[pyrrolidine-2,2′-tricyclo[3.3.1.1^3,7]decane]], the EC50 in assay [1] (setting [6]) amounted to 9.5 µM.

`CC(N)C12CC3CC(CC(C3)C1)C2` (stereo not shown) [Rimantadine (2), Rimantadine, reference compound]: the EC50 in assay [2] turned out to be 3.3 µM; in the assay with A/WS/33 (H1N1), M2 S31N, 310 µM; in assay [1] (setting [6]), 110 µM; in assay [1] (read-out: EC50 ± SE (μM) (N)), 106 µM. For the same molecule, the “activity against H1N1 (2009) (known)” value in assay [4] was “inactive”.

With `C1CNC(C23CC4CC(CC(C4)C2)C3)C1` (stereo not shown) [Compound 8], at M2 22-62 (S31N), the “H^+ Uptake Rate ± SD (%) (N)” value is 12 ± 13 (5) %. Also, the EC50 in assay [1] (read-out: EC50 ± SE (μM) (N)) was 15.4 µM.

On to `NC1(C23CC4CC(CC(C4)C2)C3)CCCCC1` [Compound 13, 1-((3r,5r,7r)-adamantan-1-yl)cyclohexan-1-amine], for which the EC50 in assay [5] is 10 ± 2 µM; in assay [1] (read-out: EC50 ± SE (μM) (N)), 3.62 µM.

Regarding `CC1CCN(C)C12C1CC3CC(C1)CC2C3` (stereo not shown) [Compound 346, 1,3-dimethylspiro[pyrrolidine-2,2′-tricyclo [3.3.1.1^3,7]decane]], the EC50 in assay [1] (setting [6]) is 10.2 µM.

Consider `O=C1CCC2(N1)C1CC3CC(C1)CC2C3` (stereo not shown) [Compound 3], for which the EC50 in assay [1] (read-out: EC50 ± SE (μM) (N)) worked out at 15.6 µM.

Regarding `CC12CC3CC(CC(C3)C13CCCN3)C2` [Compound 11, (1r,3s,5R,7S)-1-methylspiro[adamantane-2,2′-pyrrolidine]], on M2 22-62 (S31N), the “H^+ Uptake Rate ± SD (%) (N)” value is on record as 17 ± 8.7 (6) %. The EC50 in assay [1] (read-out: EC50 ± SE (μM) (N)) turned out to be 36 µM.

Consider `NC1(c2ccccc2)C2CC3CC(C2)CC1C3` (stereo not shown) [Compound 19, (1r,3r,5r,7r)-2-phenyladamantan-2-amine], for which the EC50 is under 0.3 µM in assay [2]; 86 µM with A/WS/33 (H1N1), M2 S31N; 21 µM in assay [1] (setting [6]); 9.2 µM in assay [1] (setting [7]).

`CC1CCNC12C1CC3CC(C1)CC2C3` (stereo not shown) [Compound 343, 3-Methylspiro[pyrrolidine-2,2′-tricyclo[3.3.1.1^3,7]decane]]: the EC50 in assay [1] (setting [6]) came out at 7.2 µM.

(Values after patent US9840465B2 (priority 2013, dated 2017).)
